Test results published in PubChem BioAssay AID743233 (The Scripps Research Institute Molecular Screening Center, 2013).
Activity calls are given as the source filed them. How the calls were made is not given here.

Test system: Galpha16-expressing cells, calcium fluorescence, counterscreen
Assay: Ga16 cell calcium inhibition, concentration series – fluorescence, dose response, counter-screen for TAAR1 agonist project, late-stage follow-up (AID 743233)

| SMILES | IC50 |
| --- | --- |
| OCCNc1nc(Nc2ccc(O)cc2)nc2ccccc12 | > 29.9 µM (inactive) |
| O=C(Nc1ccncc1)Nc1ccc(F)cc1 | > 29.9 µM (inactive) |
| c1ccc2c3c([nH]c2c1)CCNC3 | > 29.9 µM (inactive) |
| O=C(Nc1ccccc1)Nc1ccncc1 | > 29.9 µM (inactive) |
| CC(=C1C(=O)c2ccccc2C1=O)N1CCc2ccccc2C1 | > 29.9 µM (inactive) |
| O=C(Nc1cccc2ccccc12)N1CCc2ccccc2C1 | > 29.9 µM (inactive) |
| c1ccc(CCN2CN(CCCN3CCOCC3)c3nc4ccccc4n3C2)cc1 | > 29.9 µM (inactive) |
| CCOC(=O)C(NC(C)=O)(N1CCc2ccccc2C1)C(F)(F)F (stereo unspecified) | > 29.9 µM (inactive) |
| Cc1cc(N(C)C)nc(Nc2ccccc2)n1 | > 29.9 µM (inactive) |
| NC(N)=Nc1cc2ccccc2c2ccccc12 | > 29.9 µM (inactive) |
| Cc1ccc(NC(=O)CCN2CCc3ccccc3C2)cc1 | > 29.9 µM (inactive) |
| NC(N)=NN=Cc1c(Cl)cccc1Cl | > 29.9 µM (inactive) |
| O=C(C(=O)N1CCc2ccccc2C1)c1cn(CC(=O)N2CCCCC2)c2ccccc12 | > 29.9 µM (inactive) |
| Cc1[nH]c2ccccc2c1CN1CCc2ccccc2C1 | > 29.9 µM (inactive) |
| c1ccc2c(c1)CCN(c1nc3cc4c(cc3s1)OCO4)C2 | > 29.9 µM (inactive) |
| CCOC(=O)C(NC(=O)CC)(N1CCc2ccccc2C1)C(F)(F)F (stereo unspecified) | > 29.9 µM (inactive) |

| SMILES | IC50 |
| --- | --- |
| Cc1cc(C)n(C(CC(=O)N2CCc3ccccc3C2)C(=O)O)n1 (stereo unspecified) | > 29.9 µM (inactive) |
| NCc1c(O)ccc2ccccc12 | > 29.9 µM (inactive) |
| COc1cc(C(=O)CCN2CCC(c3ccccc3)C2)cc(OC)c1OC (stereo unspecified) | > 29.9 µM (inactive) |
| O=C(Nc1cccnc1)Nc1cccc(F)c1 | > 29.9 µM (inactive) |
| O=C(CCCCl)N1CCc2[nH]c3ccccc3c2C1 | > 29.9 µM (inactive) |
| Nc1nc(Nc2ccccc2)nc2ccccc12 | > 29.9 µM (inactive) |
| CC1(C)CCCN(C(=O)c2coc(=O)c(Br)c2)C1 | > 29.9 µM (inactive) |
| O=c1[nH]cc(NCCc2ccccc2)c(=O)[nH]1 | > 29.9 µM (inactive) |
| O=C(CCN1CCc2ccccc2CC1)c1ccc2c(c1)OCCO2 | > 29.9 µM (inactive) |
| c1ccc(CCn2nnnc2C(c2cccs2)N2CCN(Cc3ccc4c(c3)OCO4)CC2)cc1 (stereo unspecified) | > 29.9 µM (inactive) |
| CC(=NCCc1ccccc1)C1CCOC1=O (stereo unspecified) | > 29.9 µM (inactive) |
| O=C(CCN1CCC(c2ccccc2)C1)c1cccs1 (stereo unspecified) | > 29.9 µM (inactive) |
| OCCNc1nc(Nc2cccc(O)c2)nc2ccccc12 | > 29.9 µM (inactive) |
| O=C(CCN1CCC(c2ccccc2)C1)c1ccc2c(c1)OCCO2 (stereo unspecified) | > 29.9 µM (inactive) |
| Nc1nc(Nc2cccc(F)c2)nc2ccccc12 | > 29.9 µM (inactive) |
